In ChEMBL document CHEMBL1132119, “1-Arylnaphthalene lignan: a novel scaffold for type 5 phosphodiesterase inhibitor” (J Med Chem, 1999):

Key:
[1] = biological target: Phosphodiesterase 3 (Canis familiaris); test: Inhibitory activity against phosphodiesterase 3 (PDE 3) isolated from cardiac ventricle
[2] = biological target: Phosphodiesterase 1 (Canis familiaris); test: Inhibitory activity against phosphodiesterase 1 (PDE I), isolated from cardiac ventricle
[3] = biological target: cGMP-specific 3',5'-cyclic phosphodiesterase (Canis lupus familiaris, UniProt O77746); test: Inhibitory activity against phosphodiesterase 5 (PDE V), isolated from lung
[4] = species: Rattus norvegicus; test: Relaxant effect on rat aortic rings.; assay type: functional, organism-based; details: Aorta
[5] = biological target: Phosphodiesterase 4 (Canis familiaris); test: Inhibition of canine lung Phosphodiesterase 4
[6] = biological target: Phosphodiesterase 2 (Canis familiaris); test: Inhibition of canine adrenal gland Phosphodiesterase 2

Compound | IC50 [1] | IC50 [2] | IC50 [3] | EC50 [4] | IC50 [5] | IC50 [6]
COC(=O)c1c(C(=O)N2CCN(CCO)CC2)cc2cc(OC)c(OC)c(OC)c2c1-c1cc(Br)c(OC)c(OC)c1 | > 100 µM | > 100 µM | > 100 µM | – | – | –
COC(=O)c1c(C(=O)N2CCC(=O)CC2)cc2cc(OC)c(OC)cc2c1-c1cc(OC)c(OC)c(OC)c1 | > 100 µM | 88 µM | 0.5 µM | – | – | –
COC(=O)c1c(C(=O)N2CCN(C)CC2)cc2cc(OC)c(OC)cc2c1-c1cc(OC)c(OC)c(OC)c1 | > 100 µM | 69 µM | 1.4 µM | – | – | –
COC(=O)c1c(C(=O)N2CCN(CCO)CC2)cc2ccc(Cl)cc2c1-c1cc(Br)c(OC)c(OC)c1 | > 100 µM | 1.1 µM | 0.021 µM | – | – | –
COC(=O)c1c(C(=O)N2CCC(CO)CC2)cc2cc(OC)c(OC)cc2c1-c1cc(OC)c(OC)c(OC)c1 | > 100 µM | 45 µM | 0.32 µM | – | – | –
COC(=O)c1c(C(=O)N2CCC(O)CC2)cc2cc(OC)c(OC)cc2c1-c1cc(OC)c(OC)c(OC)c1 | > 100 µM | 74 µM | 0.17 µM | – | – | –
COC(=O)c1c(C(=O)N2CCN(CCO)CC2)cc2cc(OC)ccc2c1-c1cc(Br)c(OC)c(OC)c1 | – | – | 0.012 µM | 0.56 µM | – | –
COC(=O)c1c(C(=O)N2CCN(CCO)CC2)cc2cc(OC)c(OC)cc2c1-c1cccs1 | > 100 µM | 77 µM | > 100 µM | – | – | –
COC(=O)c1c(C(=O)N2CCN(CCO)CC2)cc2ccc(C)cc2c1-c1cc(Br)c(OC)c(OC)c1 | > 100 µM | 3.5 µM | 0.051 µM | – | – | –
O=C(O)C1CCN(c2nc(NCc3ccc4c(c3)OCO4)c3cc(Cl)ccc3n2)CC1 | – | – | 0.0016 µM | 0.2 µM | – | –
COC(=O)c1c(CN2CCN(CCO)CC2)cc2cc(OC)c(OC)cc2c1-c1cc(OC)c(OC)c(OC)c1 | > 100 µM | 26 µM | 2.4 µM | – | – | –
COc1cc2cc(N)c(CO)c(-c3cc(OC)c(OC)c(OC)c3)c2cc1OC | 3.5 µM | 2.1 µM | 13 µM | – | – | –
COC(=O)c1c(C(=O)N2CCCC2)cc2cc(OC)c(OC)cc2c1-c1cc(OC)c(OC)c(OC)c1 | – | – | 0.78 µM | – | – | –
COC(=O)c1c(C(=O)N2CCN(CCO)CC2)cc2cc(OC)c(OC)cc2c1-c1cc(N)c(OC)c(OC)c1 | > 100 µM | > 100 µM | 30 µM | – | – | –
COC(=O)c1cc2cc(OC)c(OC)cc2c(-c2cc(OC)c(OC)c(OC)c2)c1C(=O)OC | > 100 µM | > 100 µM | 2.1 µM | – | – | –
COC(=O)c1c(C(=O)N2CCOCC2)cc2cc(OC)c(OC)cc2c1-c1cc(OC)c(OC)c(OC)c1 | – | – | 0.39 µM | – | – | –
COC(=O)c1c(C(N)=O)cc2cc(OC)c(OC)cc2c1-c1cc(OC)c(OC)c(OC)c1 | 0.32 µM | 0.82 µM | > 100 µM | – | – | –
COC(=O)c1c(C(=O)N2CCN(CCO)CC2)cc2cc(OC)c(OC)cc2c1-c1cc(OC)c(OC)cc1C | – | – | 52 µM | – | – | –
COc1cc2cc3c(c(-c4cc(OC)c(OC)c(OC)c4)c2cc1OC)COC3=O | 0.84 µM | 0.43 µM | 0.068 µM | – | – | –

Compound | IC50 [1] | IC50 [2] | IC50 [3] | EC50 [4] | IC50 [5] | IC50 [6]
CCOc1cc2cc(C(=O)N3CCN(CCO)CC3)c(C(=O)OC)c(-c3cc(Br)c(OC)c(OC)c3)c2cc1OC | – | – | 0.017 µM | 0.3 µM | – | –
COC(=O)c1c(C(=O)N2CCN(CCO)CC2)cc2cc(OC)c(OC)cc2c1-c1cc(Cl)c(OC)c(OC)c1 | > 100 µM | 26 µM | 0.049 µM | 1.3 µM | > 100 µM | > 100 µM
COC(=O)c1c(C(=O)N2CCN(CCO)CC2)cc2cc(OC)c(OC)cc2c1-c1cc(Cl)cc(Cl)c1 | > 100 µM | > 100 µM | 54 µM | – | – | –
COC(=O)c1c(C(=O)N2CCN(CCO)CC2)cc2c(Cl)cccc2c1-c1cc(Br)c(OC)c(OC)c1 | – | – | 0.0062 µM | 0.1 µM | – | –
CNC(=O)c1cc2cc(OC)c(OC)cc2c(-c2cc(OC)c(OC)c(OC)c2)c1C(=O)OC | 2.9 µM | > 100 µM | > 100 µM | – | – | –
COc1cc2cc3c(c(-c4cc(OC)c(OC)c(OC)c4)c2cc1OC)C(=O)N(C)C3=O | > 100 µM | > 100 µM | > 100 µM | – | – | –
COC(=O)c1c(C(=O)N2CCN(CCO)CC2)cc2cc(OC)c(OC)cc2c1-c1ccc2c(c1)OCO2 | > 100 µM | 55 µM | 33 µM | – | – | –
COc1cc2cc(C(=O)N3CCN(CCO)CC3)c(CO)c(-c3cc(OC)c(OC)c(OC)c3)c2cc1OC | > 100 µM | > 100 µM | > 100 µM | – | – | –
COC(=O)c1c(C(=O)N2CCN(CCO)CC2)cc2cc(OC)c(OC)cc2c1/C=C/c1cc(OC)c(OC)c(OC)c1 | – | – | > 100 µM | – | – | –
COC(=O)c1c(C(=O)N2CCCCC2)cc2cc(OC)c(OC)cc2c1-c1cc(OC)c(OC)c(OC)c1 | – | – | 2.1 µM | – | – | –
COC(=O)c1c(C(=O)N(C)C)cc2cc(OC)c(OC)cc2c1-c1cc(OC)c(OC)c(OC)c1 | 16 µM | 35 µM | 0.23 µM | – | – | –
COC(=O)c1c(C(=O)N2CCN(CCO)CC2)cc2ccccc2c1-c1cc(Br)c(OC)c(OC)c1 | > 100 µM | 3.4 µM | 0.025 µM | 0.79 µM | > 100 µM | > 100 µM
COC(=O)c1c(C(=O)N2CCN(CCO)CC2)cc2cc(OC)c(OC)cc2c1-c1cccc([N+](=O)[O-])c1 | > 100 µM | > 100 µM | > 100 µM | – | – | –
COc1cc2cc(CO)c(CO)c(-c3cc(OC)c(OC)c(OC)c3)c2cc1OC | 0.88 µM | 18 µM | 13 µM | – | – | –
COC(=O)c1c(C(=O)N2CCN(CCO)CC2)cc2cc(OC)c(OC)cc2c1-c1ccc(Cl)c(Cl)c1 | > 100 µM | 82 µM | 53 µM | – | – | –
COC(=O)c1c(C(=O)N2CCN(CCO)CC2)cc2cc(OC)c(OC)cc2c1-c1ccnc(Br)c1 | – | – | > 100 µM | – | – | –
COC(=O)c1c(C(=O)N2CCN(CCO)CC2)cc2cc(OC)c(OC)cc2c1-c1cc(OC)c(OC)c(OC)c1 | > 100 µM | 41 µM | 0.094 µM | 2 µM | > 100 µM | > 100 µM
COC(=O)c1c(C(=O)N2CCN(CCO)CC2)cc2cc(OC)c(OC)cc2c1-c1cc(Br)c(OC)c(OC)c1 | > 100 µM | 11 µM | 0.024 µM | 0.46 µM | > 100 µM | > 100 µM
CCOC(=O)C1CCN(C(=O)c2cc3cc(OC)c(OC)cc3c(-c3cc(OC)c(OC)c(OC)c3)c2C(=O)OC)CC1 | 60 µM | 24 µM | 2 µM | – | – | –
